How the values were obtained:
Enterococcus sp. = assay: in vitro antibacterial evaluation, MIC by broth dilution; format: cell-based; conditions: broth dilution, 18 hours at 35° C.
In short: (§1)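 Step 1: dilute antibiotic across 64-0.06 μg/mL in Muller-Hinton II […]. Step 2: inoculate at 5×10^5 CFU/mL.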

Escherichia coli = assay: as above; format: cell-based
In short: as §1

Staphylococcus sp. = assay: as above; format: cell-based; conditions: broth dilution, 18 hours at 35° C.; for MIC Staphylococcus aureus (GC 1131): strain GC 1131
In short: as §1

Streptococcus sp. = assay: as above; format: cell-based; conditions: broth dilution, 18 hours at 35° C.
In short: as §1

[1] = tested on: Staphylococcus aureus-SMITH (GC 4543); assay: acute lethal infection in mice; format: in vivo; conditions: acute lethal infection, female CD-1 mice, intraperitoneal challenge, intravenous 30 min. after infection, 7 day survival
In short: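 Survival at 7 days, pooled from three independent tests, yields ED50 values. Treatment is intravenous, 30 min after ip infection of female CD-1 mice, using an inoculum lethal to untreated controls within 24-48 hr.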

CC(c1ccccc1)C1NC(=O)CNC(=O)C(CO)NC(=O)C(C(O)C2CNC(=N)N2C2OC(CO)C(O)C(O)C2O)NC(=O)C(C(O)C2CNC(=N)N2)NC(=O)C(Cc2ccc(OC3OC(CO)C(OC4OC5COC(c6ccc7c(c6)OCO7)OC5C(O)C4O)C(O)C3O)cc2)NC1=O (stereo not drawn) [Example 143, Cyclo[glycyl-β-methylphenylalanyl-O-[4-O-[4,6-O-(1,3-benzodioxol-5-ylmethylene)hexopyranosyl]hexopyranosyl]tyrosyl-3-(2-iminoimidazolidin-4-yl)seryl-3-(3-hexopyranosyl-2-iminoimidazolidin-4-yl)serylseryl]]
1 to 4 µg/mL: MIC Staphylococcus aureus (GC 4542) (Staphylococcus sp.; strain GC 4542)
0.28 mg/kg: median effective dose (ED50), Staphylococcus aureus-SMITH (GC 4543) [1]
0.25 to 0.5 µg/mL: MIC Streptococcus pneumoniae (GC 4565) (Streptococcus sp.; Streptococcus pneumoniae (GC 4565)) | MIC Streptococcus pneumoniae (GC 4565) (Streptococcus sp.; strain GC 4565)
0.12 to 0.5 µg/mL: MIC Streptococcus pneumoniae (ATCC 6301) (Streptococcus sp.; Streptococcus pneumoniae (ATCC 6301)) | MIC Streptococcus pneumoniae (ATCC 6301) (Streptococcus sp.; strain ATCC 6301)
2 to 8 µg/mL: MIC Enterococcus faecium (GC 4557) (Enterococcus sp.; Enterococcus faecium (GC 4557)) | MIC Enterococcus faecium (GC 4557) (Enterococcus sp.; strain GC 4557) | MIC Staphylococcus aureus (GC 4544) (Staphylococcus sp.; strain GC 4544)
4 to 16 µg/mL: MIC Enterococcus faecalis (GC 2242) (Enterococcus sp.; Enterococcus faecalis (GC 2242)) | MIC Enterococcus faecalis (GC 6189) (Enterococcus sp.; Enterococcus faecalis (GC 6189)) | MIC Enterococcus faecalis (GC 2242) (Enterococcus sp.; strain GC 2242) | MIC Enterococcus faecalis (GC 6189) (Enterococcus sp.; strain GC 6189)
1 µg/mL: MIC Coagulase Negative Staphylococcus (GC 4549) (Staphylococcus sp.; strain GC 4549)
64 µg/mL: MIC Escherichia coli (GC 4559) (Escherichia coli; strain GC 4559, 18 hours at 35° C.)
2 to 4 µg/mL: MIC Staphylococcus aureus (GC 1131) (Staphylococcus sp.; inoculum 5×10^5 CFU/mL) | MIC Staphylococcus aureus (ATCC 29213) (Staphylococcus sp.; strain ATCC 29213) | MIC Staphylococcus aureus (GC 1131) (Staphylococcus sp.) | MIC Staphylococcus aureus (GC 3051) (Staphylococcus sp.; strain GC 3051) | MIC Staphylococcus aureus (GC 4541) (Staphylococcus sp.; strain GC 4541) | MIC Staphylococcus aureus-SMITH (GC 4543) (Staphylococcus sp.; strain GC 4543) | MIC Staphylococcus aureus (GC 4545) (Staphylococcus sp.; strain GC 4545) | MIC Coagulase Negative Staphylococcus (GC 4551) (Staphylococcus sp.; strain GC 4551) | MIC Staphylococcus aureus-SMITH (GC 4543) (Staphylococcus sp.; strain SMITH GC 4543)
0.5 to 1 µg/mL: MIC Streptococcus agalactiae (GC 4564) (Streptococcus sp.; Streptococcus agalactiae (GC 4564)) | MIC Streptococcus agalactiae (GC 4564) (Streptococcus sp.; strain GC 4564)
8 µg/mL: MIC Enterococcus faecalis (GC 2691) (Enterococcus sp.; Enterococcus faecalis (GC 2691)) | MIC Enterococcus faecalis (GC 2691) (Enterococcus sp.; strain GC 2691)
>64 µg/mL: MIC Escherichia coli (ATCC 25922) (Escherichia coli; strain ATCC 25922, 18 hours at 35° C.)
1 to 2 µg/mL: MIC Escherichia coli (GC 4560) (Escherichia coli; strain GC 4560, 18 hours at 35° C.) | MIC Coagulase Negative Staphylococcus (GC 4547) (Staphylococcus sp.; strain GC 4547) | MIC Coagulase Negative Staphylococcus (GC 4548) (Staphylococcus sp.; strain GC 4548) | MIC Coagulase Negative Staphylococcus (GC 6257) (Staphylococcus sp.; strain GC 6257)
0.5 to 2 µg/mL: MIC Staphylococcus haemolyticus (GC 4546) (Staphylococcus sp.; strain GC 4546)
<0.06 to 0.12 µg/mL: MIC Streptococcus pneumoniae (GC 1894) (Streptococcus sp.; Streptococcus pneumoniae (GC 1894)) | MIC Streptococcus pneumoniae (GC 1894) (Streptococcus sp.; strain GC 1894)
0.25 to 1 µg/mL: MIC Streptococcus pyogenes (GC 4563) (Streptococcus sp.; Streptococcus pyogenes (GC 4563)) | MIC Streptococcus pyogenes (GC 4563) (Streptococcus sp.; strain GC 4563)
8 to 16 µg/mL: MIC Enterococcus avium (GC 4558) (Enterococcus sp.; Enterococcus avium (GC 4558)) | MIC Enterococcus faecalis (ATCC 29212) (Enterococcus sp.; Enterococcus faecalis (ATCC 29212)) | MIC Enterococcus faecalis (GC 3059) (Enterococcus sp.; Enterococcus faecalis (GC 3059)) | MIC Enterococcus faecalis (GC 4552) (Enterococcus sp.; Enterococcus faecalis (GC 4552)) | MIC Enterococcus faecalis (GC 4553) (Enterococcus sp.; Enterococcus faecalis (GC 4553)) | MIC Enterococcus faecalis (GC 4554) (Enterococcus sp.; Enterococcus faecalis (GC 4554)) | MIC Enterococcus faecium (GC 2243) (Enterococcus sp.; Enterococcus faecium (GC 2243)) | MIC Enterococcus faecium (GC 4556) (Enterococcus sp.; Enterococcus faecium (GC 4556)) | MIC Enterococcus faecalis (ATCC 29212) (Enterococcus sp.; strain ATCC 29212) | MIC Enterococcus faecium (GC 2243) (Enterococcus sp.; strain GC 2243) | MIC Enterococcus faecalis (GC 3059) (Enterococcus sp.; strain GC 3059) | MIC Enterococcus faecalis (GC 4552) (Enterococcus sp.; strain GC 4552) | MIC Enterococcus faecalis (GC 4553) (Enterococcus sp.; strain GC 4553) | MIC Enterococcus faecalis (GC 4554) (Enterococcus sp.; strain GC 4554) | MIC Enterococcus faecium (GC 4556) (Enterococcus sp.; strain GC 4556) | MIC Enterococcus avium (GC 4558) (Enterococcus sp.; strain GC 4558)
4 to 8 µg/mL: MIC Staphylococcus aureus (GC 3053) (Staphylococcus sp.; strain GC 3053)
